These results are taken from publication PMC11285368, “Chasing Red Herrings: Palladium Metal Salt Impurities Feigning KRAS Activity in Biochemical Assays” (Journal of Medicinal Chemistry, 2024).

In general, IC50 refers to the concentration that inhibits the measured activity by half.

A value given as a limit tells only on which side of the number the result lay.

Common to all, as to format: biochemical
In assay [1] the target is LSD1 (Homo sapiens, UniProt O60341). As to the kind of experiment: LSD1 DELFIA. Particulars: read-out: Target #1 IC50. Here is the method: (§1) Metal salt solutions for the metal ion interference set (MIIS) were prepared as 10 mM stock solutions in DMSO (see Table 3). All metal salts used have been purchased at highest industrial grade.
For assay [2], the system named is KRAS GDP. As to the kind of experiment: KRAS AlphaScreen, Target #1. As for the experimental part: as §1
Background: Bead proximity is the source of the signal in Alpha formats.

Assay [3] concerns off-target. As to the kind of experiment: FKBP51 AlphaScreen, Target #2. As for the experimental part:
as §1

Assay [4] deals with KRAS GTP (Homo sapiens, UniProt P01116, G12D). As to the kind of experiment: KRAS AlphaScreen, Target #2. Here is the method:
as §1

Assay [5] concerns off-target. As to the kind of experiment: MDM2 AlphaScreen, Target #2. As for the experimental part:
as §1

Assay [6] relates to off-target. As to the kind of experiment: SOS1 AlphaScreen, Target #2. As for the experimental part:
as §1

The target of assay [7] is BCL6 (Homo sapiens, UniProt P41182). As to the kind of experiment: BCL6 Fluorescence Polarization. To be noted: read-out: Target #1 IC50. Here is the method:
as §1
In general terms: Fluorescence polarisation rises when a labelled molecule tumbles more slowly, as on binding a larger partner.

The test system of assay [8] is off-target. As to the kind of experiment: UPA-UPAR AlphaScreen, Target #2. Here is the method:
as §1

Assay [9] deals with WRN (ext.) (Homo sapiens, UniProt Q14191). As to the kind of experiment: WRN ADP-Glo, Target #2. Here is the method:
as §1
(In ADP-Glo the light output rises with the ADP produced.)

In assay [10] the test system is off target. As to the kind of experiment: KRAS AlphaScreen, Target #3. As for the experimental part: as §1
The target of assay [11] is UPAR (Homo sapiens, UniProt Q03405). As to the kind of experiment: UPA-UPAR AlphaScreen, Target #1. As for the experimental part:
as §1

Assay [12] addresses T1, SOS1 (Homo sapiens, UniProt Q07889).
T1 sequence (Q07889 1-1333): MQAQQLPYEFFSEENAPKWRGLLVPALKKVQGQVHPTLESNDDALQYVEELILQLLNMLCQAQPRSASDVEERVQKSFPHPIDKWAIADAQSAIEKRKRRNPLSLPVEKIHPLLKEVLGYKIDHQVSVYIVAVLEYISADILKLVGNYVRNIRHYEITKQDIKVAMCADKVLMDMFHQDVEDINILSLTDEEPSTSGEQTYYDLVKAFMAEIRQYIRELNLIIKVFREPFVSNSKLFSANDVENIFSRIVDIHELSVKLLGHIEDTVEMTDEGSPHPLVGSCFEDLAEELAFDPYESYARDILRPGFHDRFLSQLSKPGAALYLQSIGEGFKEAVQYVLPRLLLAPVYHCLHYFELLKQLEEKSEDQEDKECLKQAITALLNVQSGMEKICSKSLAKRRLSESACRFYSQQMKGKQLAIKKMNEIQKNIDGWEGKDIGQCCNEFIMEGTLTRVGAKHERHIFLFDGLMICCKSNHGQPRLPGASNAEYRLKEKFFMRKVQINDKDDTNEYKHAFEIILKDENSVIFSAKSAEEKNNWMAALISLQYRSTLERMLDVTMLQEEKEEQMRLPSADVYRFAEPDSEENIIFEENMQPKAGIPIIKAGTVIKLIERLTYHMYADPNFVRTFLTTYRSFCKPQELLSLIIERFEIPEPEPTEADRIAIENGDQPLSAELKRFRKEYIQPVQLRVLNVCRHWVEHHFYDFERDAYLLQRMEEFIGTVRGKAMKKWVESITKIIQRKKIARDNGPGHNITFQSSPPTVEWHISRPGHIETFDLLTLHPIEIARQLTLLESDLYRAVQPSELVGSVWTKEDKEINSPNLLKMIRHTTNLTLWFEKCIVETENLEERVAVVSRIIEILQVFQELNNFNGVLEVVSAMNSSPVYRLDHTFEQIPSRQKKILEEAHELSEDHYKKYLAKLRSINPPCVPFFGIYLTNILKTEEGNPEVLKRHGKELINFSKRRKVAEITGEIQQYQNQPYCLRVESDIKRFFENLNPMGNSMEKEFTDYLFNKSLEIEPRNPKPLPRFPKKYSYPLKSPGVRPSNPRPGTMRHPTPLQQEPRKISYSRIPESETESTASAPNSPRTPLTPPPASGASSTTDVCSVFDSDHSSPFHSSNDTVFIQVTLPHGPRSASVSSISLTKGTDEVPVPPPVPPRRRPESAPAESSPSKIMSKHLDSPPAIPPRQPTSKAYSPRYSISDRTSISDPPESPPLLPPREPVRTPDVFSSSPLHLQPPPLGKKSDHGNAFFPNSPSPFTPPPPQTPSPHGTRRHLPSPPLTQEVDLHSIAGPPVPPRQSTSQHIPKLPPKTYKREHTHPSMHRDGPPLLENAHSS
As to the kind of experiment: SOS1 TR-FRET. Particulars: read-out: Target #1 IC50. Here is the method: as §1

In assay [13] the target is KRAS (Homo sapiens, UniProt P01116). As to the kind of experiment: KRAS TR-FRET (MIIS list). Particulars: read-out: Target #1 IC50. As for the experimental part:
as §1

Assay [14] deals with MDM2 (Homo sapiens, UniProt Q00987). As to the kind of experiment: MDM2 AlphaScreen, Target #1. As for the experimental part:
as §1

Chain of KRAS (P01116 1-188 isoform P01116-2): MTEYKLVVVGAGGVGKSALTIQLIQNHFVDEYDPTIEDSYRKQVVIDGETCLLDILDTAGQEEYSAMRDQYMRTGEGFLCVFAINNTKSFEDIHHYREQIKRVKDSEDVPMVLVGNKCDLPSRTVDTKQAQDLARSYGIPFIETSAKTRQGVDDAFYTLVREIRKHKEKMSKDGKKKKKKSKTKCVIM
Chain of UPAR (Q03405 23-305 limits assumed, species assumed): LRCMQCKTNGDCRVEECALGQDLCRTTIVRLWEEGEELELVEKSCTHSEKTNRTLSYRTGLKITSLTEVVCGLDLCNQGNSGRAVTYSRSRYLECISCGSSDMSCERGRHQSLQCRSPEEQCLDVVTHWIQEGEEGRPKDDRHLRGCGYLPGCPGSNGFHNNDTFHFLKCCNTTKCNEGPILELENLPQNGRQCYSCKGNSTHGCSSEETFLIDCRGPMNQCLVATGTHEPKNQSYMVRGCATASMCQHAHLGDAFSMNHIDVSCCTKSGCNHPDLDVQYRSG
Chain of KRAS GTP (P01116 1-169 isoform P01116-2 G12D): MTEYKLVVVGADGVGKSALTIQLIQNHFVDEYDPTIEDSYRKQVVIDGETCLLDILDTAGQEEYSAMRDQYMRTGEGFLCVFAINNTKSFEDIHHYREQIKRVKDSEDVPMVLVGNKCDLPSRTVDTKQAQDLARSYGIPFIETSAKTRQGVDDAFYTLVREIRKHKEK
Chain of WRN (ext.) (Q14191 whole entry, species assumed): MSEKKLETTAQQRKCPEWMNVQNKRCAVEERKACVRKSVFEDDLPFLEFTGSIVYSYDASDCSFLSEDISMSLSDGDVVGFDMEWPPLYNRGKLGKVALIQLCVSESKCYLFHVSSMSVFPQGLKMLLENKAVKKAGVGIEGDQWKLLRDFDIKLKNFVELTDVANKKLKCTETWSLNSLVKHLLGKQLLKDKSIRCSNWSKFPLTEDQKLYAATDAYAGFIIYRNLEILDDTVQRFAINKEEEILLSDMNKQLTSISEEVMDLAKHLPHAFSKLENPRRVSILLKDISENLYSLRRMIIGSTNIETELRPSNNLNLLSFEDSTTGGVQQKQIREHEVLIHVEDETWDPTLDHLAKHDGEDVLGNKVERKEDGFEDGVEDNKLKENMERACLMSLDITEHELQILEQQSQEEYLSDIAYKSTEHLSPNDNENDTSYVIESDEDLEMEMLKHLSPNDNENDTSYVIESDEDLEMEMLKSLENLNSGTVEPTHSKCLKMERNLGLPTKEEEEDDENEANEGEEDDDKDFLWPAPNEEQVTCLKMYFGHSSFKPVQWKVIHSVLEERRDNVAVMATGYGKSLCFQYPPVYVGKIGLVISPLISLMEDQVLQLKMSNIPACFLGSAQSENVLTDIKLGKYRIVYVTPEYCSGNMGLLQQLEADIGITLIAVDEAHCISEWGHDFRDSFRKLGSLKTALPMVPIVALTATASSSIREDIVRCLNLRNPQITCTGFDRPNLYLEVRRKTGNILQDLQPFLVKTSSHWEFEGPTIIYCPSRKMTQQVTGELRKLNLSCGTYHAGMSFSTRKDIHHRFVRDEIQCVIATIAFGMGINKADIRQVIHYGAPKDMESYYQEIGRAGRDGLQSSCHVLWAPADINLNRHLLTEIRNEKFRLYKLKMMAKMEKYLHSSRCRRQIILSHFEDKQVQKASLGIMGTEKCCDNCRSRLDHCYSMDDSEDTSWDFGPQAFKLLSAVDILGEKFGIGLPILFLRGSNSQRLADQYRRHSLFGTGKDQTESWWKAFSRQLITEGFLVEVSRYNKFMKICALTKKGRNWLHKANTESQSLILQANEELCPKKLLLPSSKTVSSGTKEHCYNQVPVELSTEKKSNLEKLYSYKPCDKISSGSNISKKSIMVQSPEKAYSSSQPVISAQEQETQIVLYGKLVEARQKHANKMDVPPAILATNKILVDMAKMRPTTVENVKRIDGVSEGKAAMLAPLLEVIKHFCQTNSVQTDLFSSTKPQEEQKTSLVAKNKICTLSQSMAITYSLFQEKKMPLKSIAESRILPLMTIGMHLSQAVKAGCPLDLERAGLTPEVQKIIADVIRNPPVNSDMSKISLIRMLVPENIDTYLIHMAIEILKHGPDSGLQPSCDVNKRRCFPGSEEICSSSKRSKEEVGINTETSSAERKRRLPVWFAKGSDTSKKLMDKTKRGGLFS
Chain of MDM2 (Q00987 whole entry, species assumed): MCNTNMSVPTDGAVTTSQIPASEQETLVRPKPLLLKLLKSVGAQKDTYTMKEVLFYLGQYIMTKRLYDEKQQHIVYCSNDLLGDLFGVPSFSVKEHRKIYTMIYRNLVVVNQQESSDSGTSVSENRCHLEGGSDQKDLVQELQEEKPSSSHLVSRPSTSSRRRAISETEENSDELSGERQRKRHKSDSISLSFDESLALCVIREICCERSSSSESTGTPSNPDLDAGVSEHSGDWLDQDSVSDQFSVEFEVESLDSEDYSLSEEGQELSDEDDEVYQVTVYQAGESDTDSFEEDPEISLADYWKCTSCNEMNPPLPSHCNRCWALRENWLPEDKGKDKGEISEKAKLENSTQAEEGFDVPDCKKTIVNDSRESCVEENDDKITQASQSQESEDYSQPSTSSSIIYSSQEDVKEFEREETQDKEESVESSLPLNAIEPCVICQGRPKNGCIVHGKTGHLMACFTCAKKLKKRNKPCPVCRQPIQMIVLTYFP

In the case of `[Cl][Au]([Cl])[Cl]` [AuCl3, Gold(III) chloride], the IC50 in assay [1] was 1 to 10 µM; in assay [2], 1 to 10 µM; in [3] it was over 10 µM; in [4] it was 1 to 10 µM; in assay [5], over 10 µM; in [6], over 10 µM. Moreover, the IC50 in assay [7] is over 10 µM; in assay [8], 1 to 10 µM; in assay [9] it was 1 to 10 µM; in assay [10] it was over 10 µM; in [11] it was 1 to 10 µM; in [12], under 1 µM. For the same compound, the IC50 was under 1 µM in [13] and over 10 µM in assay [14].
